Two molecules from PMC5557916, “A new method to investigate the catalytic mechanism of YhdE pyrophosphatase by using a pyrophosphate fluorescence probe” (Scientific Reports, 2017) can be followed below.

Data set [1] concerns the target T1, YhdE (Escherichia coli, UniProt P25536).
T1 construct: recombinant, cloned in vector pFO4, expressed in E. coli BL21(DE3); PDB entries are of the E33A mutant
The data set can be described thus: fluorescence PPi sensor (4-isoACBA-Zn(II)), real-time. The class given is biochemical. Particulars: 20 mM HEPES pH 7.0, 0.4 mM Zn2+, 0.1 mM 4-isoACBA, 298 K; 75 nM enzyme.

Substrate in data set [2]: Cc1cn([C@H]2C[C@H](O)[C@@H](COP(=O)(O)OP(=O)(O)OP(=O)(O)O)O2)c(=O)[nH]c1=O
The data set is described as above. The class given is biochemical, Escherichia coli. The following applies: 20 mM HEPES pH 7.0, 0.4 mM Zn2+, 0.1 mM 4-isoACBA, 298 K, 7.5 μM enzyme, 25.0 °C.

Take `Cc1cn([C@H]2C[C@H](O)[C@@H](COP(=O)(O)OP(=O)(O)OP(=O)(O)O)O2)c(=O)[nH]c1=O` [dTTP]: in data set [1], the “apparent Km” value is “somewhat surprisingly, is similar to that of the wild-type YhdE”.

B1: YhdE (Escherichia coli K-12; E33A) (protein)
chain: MTSLYLASGSPRRQELLAQLGVTFERIVTGIEAQRQPQESAQQYVVRLAREKARAGVAQTAKDLPVLGADTIVILNGEVLEKPRDAEHAAQMLRKLSGQTHQVMTAVALADSQHILDCLVVTDVTFRTLTDEDIAGYVASDEPLDKAGAYGIQGLGGCFVRKINGSYHAVVGLPLVETYELLSNFNALREKRDKHDG
notes: recombinant, cloned in vector pFO4, expressed in E. coli BL21(DE3); PDB entries are of the E33A mutant
As to B1, the Km in data set [2] was 75 µM.
